These results are taken from ChEMBL document CHEMBL4483862, “Open-source discovery of chemical leads for next-generation chemoprotective antimalarials” (2018).

This assay relates to Plasmodium berghei. The assay is described as follows: Luciferase/luciferin-expressing antifolate-resistant parasites were used to infect a culture of HepG2 cells that were pre-incubated with compounds. Infected hepatocytes emit light due to the luciferase reaction. Assay results are presented as the percent inhibition of light emission compared to control. […]. The conditions noted are these: sporozoite; for IC90: read-out: LUCIFERASE INFECTION ASSAY - IC90. The class given is functional.

As to `CCCOc1ccc(C(=O)CCC(=O)NNC(=O)c2ccncc2)cc1`, the IC90 (in general, the point of the concentration-response curve where the effect stands at 90%) was 5.4 µM. Under “HEPG2TOX_HILL_SLOPE 2.12, HEPG2TOX_R_SQUARED 0.868, PBLUC_HILL_SLOPE 86, PBLUC_R_SQUARED 0.219, read-out: LUCIFERASE INFECTION ASSAY - IC50”, the IC50 – broadly, the concentration that gives 50% inhibition – was determined as 5.26 µM.

Consider `OCc1ccc(-c2cnc3ccc(-c4ccccc4)nn23)cc1`, for which the IC90 was 3.93 µM. Further, for the setting “HEPG2TOX_HILL_SLOPE 2.14, HEPG2TOX_R_SQUARED 0.888, PBLUC_HILL_SLOPE 1.3, PBLUC_R_SQUARED 0.716, read-out: LUCIFERASE INFECTION ASSAY - IC50”, the half-maximal inhibitory concentration (IC50) came to 0.73 µM.

As to `COc1ccc(-c2cnc3ccc(NCc4ccc(F)cc4)nn23)cc1`, the IC90 was found to be 3.94 µM. In addition, the IC50 (HEPG2TOX_HILL_SLOPE 2.12, HEPG2TOX_R_SQUARED 0.979, PBLUC_HILL_SLOPE 9.57, PBLUC_R_SQUARED 0.534, read-out: LUCIFERASE INFECTION ASSAY - IC50) is 3.13 µM.

For `Cc1ccc(-c2cnc3ccc(NC4CCOCC4)nn23)cc1C`, the IC90 was 4.53 µM. Besides, for the setting “HEPG2TOX_HILL_SLOPE 2.16, HEPG2TOX_R_SQUARED 0.752, PBLUC_HILL_SLOPE 1.94, PBLUC_R_SQUARED 0.563, read-out: LUCIFERASE INFECTION ASSAY - IC50”, the IC50 came out at 1.46 µM.

For the molecule `C/N=c1\scc(-c2ccc(OC(F)F)cc2)n1/N=C/c1ccccc1Br`, the IC90 came out at 3.26 µM. The IC50 (HEPG2TOX_HILL_SLOPE 2.13, HEPG2TOX_R_SQUARED 0.347, PBLUC_HILL_SLOPE 0.898, PBLUC_R_SQUARED 0.747, read-out: LUCIFERASE INFECTION ASSAY - IC50) was 0.283 µM.

Regarding `Clc1cccc(-c2cnc3sc(NCCc4ccncc4)nn23)c1`, the IC90 is more than 9.27 µM. Moreover, the IC50 (HEPG2TOX_HILL_SLOPE 2.13, HEPG2TOX_R_SQUARED 0.945, PBLUC_HILL_SLOPE 2.85, PBLUC_R_SQUARED 0.464, read-out: LUCIFERASE INFECTION ASSAY - IC50) is 5.6 µM.

Consider `Cc1ccc(NC(=O)COCc2nc3ccccc3s2)cc1S(=O)(=O)Nc1ccccc1F`, for which the IC90 was more than 10 µM. Besides, the half-inhibitory concentration (IC50) (HEPG2TOX_HILL_SLOPE 2.14, HEPG2TOX_R_SQUARED 0.975, PBLUC_HILL_SLOPE 2, PBLUC_R_SQUARED 0.573, read-out: LUCIFERASE INFECTION ASSAY - IC50) is 4.27 µM.

On to `COc1cc(C#N)ccc1Oc1ccnc2cc(Cl)ccc12`, for which the IC90 was more than 10 µM. Moreover, the IC50 (HEPG2TOX_HILL_SLOPE 2.16, HEPG2TOX_R_SQUARED 0.625, PBLUC_HILL_SLOPE 9.16, PBLUC_R_SQUARED 0.449, read-out: LUCIFERASE INFECTION ASSAY - IC50) turned out to be 8.55 µM.

As to `CC1Cc2cc(C(=O)CSc3nnc(Cc4cccs4)n3C)ccc2N1S(C)(=O)=O` (configuration not stated), the IC90 is more than 10 µM. Moreover, the IC50 (HEPG2TOX_HILL_SLOPE 2.13, 1.88, HEPG2TOX_R_SQUARED 0.890, 0.990, PBLUC_HILL_SLOPE 2.16, PBLUC_R_SQUARED 0.278, read-out: LUCIFERASE INFECTION ASSAY - IC50) came to 3.7 µM.

As for `CCOC(=O)c1c(NC(=O)CNCc2ccccn2)sc(CC)c1C`, the IC90 was 6.49 µM. Besides, the IC50 (HEPG2TOX_HILL_SLOPE 2.14, HEPG2TOX_R_SQUARED 0.831, PBLUC_HILL_SLOPE 2.51, PBLUC_R_SQUARED 0.552, read-out: LUCIFERASE INFECTION ASSAY - IC50) turned out to be 2.7 µM.

As to `Cc1ccc(C)c(OCC(O)CN2CCN(Cc3nc(-c4ccc(Cl)cc4)no3)CC2)c1` (configuration not stated), the 90% effect concentration (IC90) worked out at 7.62 µM. The IC50 (HEPG2TOX_HILL_SLOPE 2.12, HEPG2TOX_R_SQUARED 0.919, PBLUC_HILL_SLOPE 1.87, PBLUC_R_SQUARED 0.881, read-out: LUCIFERASE INFECTION ASSAY - IC50) is 2.36 µM.

For the molecule `COc1ccc(C2CCCCCN2C(=O)c2csc(-c3ccsc3)n2)cc1` (configuration not stated), the IC90 is more than 10 µM. Moreover, under “HEPG2TOX_HILL_SLOPE 2.14, HEPG2TOX_R_SQUARED 0.977, PBLUC_HILL_SLOPE 2.8, PBLUC_R_SQUARED 0.0937, read-out: LUCIFERASE INFECTION ASSAY - IC50”, the IC50 is 5.38 µM.

`O=C(NC1CC1)c1ccc(-c2cnc3c(NCc4ccc5c(c4)OCO5)nccn23)cc1`: the IC90 came to 2.99 µM. Also, the IC50 (HEPG2TOX_HILL_SLOPE 2.15, HEPG2TOX_R_SQUARED 0.624, PBLUC_HILL_SLOPE 12.5, PBLUC_R_SQUARED 0.564, read-out: LUCIFERASE INFECTION ASSAY - IC50) was 2.51 µM.

For the molecule `O=C(Nc1ncc(Cc2ccccc2Br)s1)c1ccc2nc[nH]c2c1`, the IC90 was more than 10 µM. Further, the IC50 (HEPG2TOX_HILL_SLOPE 2.12, HEPG2TOX_R_SQUARED 0.698, PBLUC_HILL_SLOPE 2.32, PBLUC_R_SQUARED 0.476, read-out: LUCIFERASE INFECTION ASSAY - IC50) was determined as 4.08 µM.

On to `Fc1ccc2[nH]cc(CCNc3nc(Cl)nc4nc[nH]c34)c2c1`, for which the IC90 turned out to be 4.27 µM. Moreover, the IC50 (HEPG2TOX_HILL_SLOPE 2.14, HEPG2TOX_R_SQUARED 0.948, PBLUC_HILL_SLOPE 1.79, PBLUC_R_SQUARED 0.853, read-out: LUCIFERASE INFECTION ASSAY - IC50) was found to be 1.25 µM.

For the molecule `CO[C@H]1[C@H](C)O[C@@H](O[C@H]2CC[C@]3(C)C4C[C@@H](O)[C@]5(C)[C@@H](C6=CC(=O)OC6)[C@@H](OC(C)=O)C[C@]5(O)C4CC[C@@H]3C2)C[C@@H]1O` (some centres not stated), the IC90 was 0.626 µM. The half-maximal inhibitory concentration (IC50) (HEPG2TOX_HILL_SLOPE 2.15, HEPG2TOX_R_SQUARED 0.965, PBLUC_HILL_SLOPE 1.44, PBLUC_R_SQUARED 0.806, read-out: LUCIFERASE INFECTION ASSAY - IC50) is 0.136 µM.

Take `COc1cc(-c2[nH]nc3nccc(-c4ccc(C(C)C)cc4)c23)cc(OC)c1OC`: the IC90 is more than 10 µM. Also, where the note is “HEPG2TOX_HILL_SLOPE 2.15, HEPG2TOX_R_SQUARED 0.552, PBLUC_HILL_SLOPE 10.1, PBLUC_R_SQUARED 0.355, read-out: LUCIFERASE INFECTION ASSAY - IC50”, the concentration for half-maximal inhibition (IC50) is 8.21 µM.

With `CCOc1ccc(OCC)c(S(=O)(=O)Oc2cccc3ccc(C)nc23)c1`, the concentration for an effect of 90% (IC90) was more than 8.52 µM. The IC50 (HEPG2TOX_HILL_SLOPE 2.15, HEPG2TOX_R_SQUARED 0.762, PBLUC_HILL_SLOPE 2.2, PBLUC_R_SQUARED 0.11, read-out: LUCIFERASE INFECTION ASSAY - IC50) was 7.25 µM.

For `CN(CC(=O)Nc1ccc(OC(F)(F)F)cc1)Cc1cc(=O)n2c([nH]c3ccccc32)c1C#N`, the 90% effect concentration (IC90) is more than 10 µM. For the same molecule, the IC50 (HEPG2TOX_HILL_SLOPE 2.12, HEPG2TOX_R_SQUARED 0.883, PBLUC_HILL_SLOPE 1.9, PBLUC_R_SQUARED 0.564, read-out: LUCIFERASE INFECTION ASSAY - IC50) worked out at 4.93 µM.

In the case of `COc1cc(/C=N/n2cnc3scc(-c4ccc(C)cc4)c3c2=O)ccc1OC(=O)OC(C)(C)C`, the IC90 was more than 10 µM. Also, the IC50 (HEPG2TOX_HILL_SLOPE 2.15, HEPG2TOX_R_SQUARED 0.967, PBLUC_HILL_SLOPE 2.51, PBLUC_R_SQUARED 0.415, read-out: LUCIFERASE INFECTION ASSAY - IC50) was found to be 4.26 µM.

Consider `O=S(=O)(Nc1cc(C(F)(F)F)cc(C(F)(F)F)c1)c1cc(F)c(Br)cc1F`, for which the IC90 was 5.67 µM. Besides, the IC50 (HEPG2TOX_HILL_SLOPE 2.12, HEPG2TOX_R_SQUARED 0.942, PBLUC_HILL_SLOPE 3.41, PBLUC_R_SQUARED 0.612, read-out: LUCIFERASE INFECTION ASSAY - IC50) was 2.98 µM.

In the case of `Cc1cc[n+](CC(=O)Nc2ccc(OC(F)F)cc2)c2ccccc12`, the IC90 is 1.27 µM. The half-inhibitory concentration (IC50) (HEPG2TOX_HILL_SLOPE 2.14, HEPG2TOX_R_SQUARED 0.242, PBLUC_HILL_SLOPE 15.8, PBLUC_R_SQUARED 0.258, read-out: LUCIFERASE INFECTION ASSAY - IC50) is 1.1 µM.

As for `COc1ccc(NC(=O)c2nnc(CSc3nc(C)cc(-c4ccccc4)n3)s2)cc1`, the IC90 was 0.616 µM. The IC50 (HEPG2TOX_HILL_SLOPE 2.12, HEPG2TOX_R_SQUARED 0.961, PBLUC_HILL_SLOPE 18.1, PBLUC_R_SQUARED 0.668, read-out: LUCIFERASE INFECTION ASSAY - IC50) was found to be 0.546 µM.

For the molecule `C/C(=N\NC(=N)N)c1ccc(Br)cc1`, the IC90 was more than 12.9 µM. In addition, for the setting “HEPG2TOX_HILL_SLOPE 2.15, HEPG2TOX_R_SQUARED 0.936, PBLUC_HILL_SLOPE 0.739, PBLUC_R_SQUARED 0.608, read-out: LUCIFERASE INFECTION ASSAY - IC50”, the IC50 was 5.11 µM.

As to `CC(=O)c1c(C)[nH]c(C(=O)C(C)Sc2nc3ccccc3o2)c1C` (configuration not stated), the IC90 was more than 10 µM. For the same molecule, under “HEPG2TOX_HILL_SLOPE 2.15, HEPG2TOX_R_SQUARED 0.56, PBLUC_HILL_SLOPE 10.4, PBLUC_R_SQUARED 0.465, read-out: LUCIFERASE INFECTION ASSAY - IC50”, the IC50 was found to be 8.44 µM.

Regarding `CCc1cccc2c(C3=CCN(c4ccc([N+](=O)[O-])cn4)CC3)c[nH]c12`, the 90% effect concentration (IC90) was more than 10 µM. Also, the IC50 (HEPG2TOX_HILL_SLOPE 2.16, 2.30, HEPG2TOX_R_SQUARED 0.931, 0.732, PBLUC_HILL_SLOPE 2.67, 4.10, PBLUC_R_SQUARED 0.259, 0.404, read-out: LUCIFERASE INFECTION ASSAY - IC50) was determined as 5.92 µM.
